Laboratory results published in patent publication US20240139206A1, “METHODS OF TREATMENT” (Kinoxis Therapeutics Pty Ltd, priority 2021, published 2024).
“Also recorded” adds a separate entry of the source.

What was measured:
Assay type in all cases: in vivo
[1] = tested on: single housed hyper-aggressive male Swiss mice; assay: Isolation-induced aggression model, two mouse social interaction test; settings: for increased time spent fighting in single housed mice: 10-minute test
Text: This model has been chosen as it is considered to have excellent predictive validity toward human aggression and face validity for modelling offensive impulsive aggression in human aggression and it leads specifically to alterations in aggressive behaviour without confounding changes in other behaviours.
Eighty male Swiss mice (ARC, Perth, Australia) aged 6-7 weeks upon arrival were used for objectives (1) and (3) in this study, 30 mice of the same age and strain were used for objective (2). Subjects were housed four per cage in a temperature-controlled colony room (22° C.±1° C.) under standard laboratory conditions (12-hour light/dark cycle; light phase 0700-1900 hours) upon arrival. Mice were housed in standard IVC cages. Mice had ad libitum access to food and water in their home cages. All experiments were performed during the light phase. All experimental procedures were approved by University of Sydney Animal Ethics Committee.
After allowing 1 week for acclimatisation, n=64 mice were rendered hyper-aggressive by moving them into single housing, whereas n=16 animals were housed in groups of four. During this time, all mice were weighed at least once per week. One week prior to the commencement of testing mice were given habituation injections with saline (0.9%, 10 mL/kg) to reduce the potential confounding stress and anxiety from injections during testing.
Testing commenced from 6 weeks post-isolation. All experiments were conducted in testing arenas constructed from acrylic, with matte blue internal walls and floor (400 mm×400 mm×400 mm). The lighting at the centre of the arenas during testing was <10 lux. Prior to each test, one mouse in each pair was marked on its back with a non-toxic green marker, this allowed the automated behavioural tracking software to distinguish between the two mice (see below). On test days, weight and condition matched pairs of unfamiliar mice were administered their drug treatment(s) as described below and were then placed into the testing arena together for a 10 min test session (Examples 2 and 4) or a 5 minute test session (Example 3).
Drugs were administered either via intraperitoneal (i.p.) injection (injection volume 10 ml/kg) or administered orally (as indicated). The testing arenas were cleaned between sessions with ethanol (80%) and F10 disinfectant to eliminate residual odours.
KNX100 2HCL (Wuxi Apptech, Hong Kong, China) was dissolved in saline (0.9%).
A 5 group between-subjects design was utilised. 15 min prior to testing, group-housed mice received vehicle treatment (VEHg) and single housed mice received one of four different doses of KNX100 (0 aka VEHs, 2.5, 5 or 10 mg/kg). The sample size in each group was as follows: group housed (n=12); singled housed administered KNX100 dose 0 (n=14), […] (n=16), […] (n=18), and 10 (n=16) mg/kg, for i.p. administration.
For oral dosing, mice were similarly grouped, and 20 mg/kg KNX100 in saline or vehicle (saline) were administered by oral gavage with n=10 mice per group.
A 4 group between-subjects design was utilised.
The behaviours of interest were: (1) time (in seconds) spent fighting; (2) time (in seconds) spent huddling (defined as the mice being in close physical contact with each other while stationary); (3) time (in seconds) spent grooming themselves; and (4) distance travelled (in mm) by each mouse during the experimental session.
Experimental sessions were recorded with an overhead camera using CaptureStar (Version 1.00, CleverSys, Virginia, USA). The behaviours detailed above were automatically quantified from the videos using the behavioural tracking software TopScan, SocialScan and AggressionScan (CleverSys, Virginia, USA). Data were analysed using SPSS (Version 24.0, IBM, USA). Data were analysed with a one-way ANOVA and planned contrasts. Significance was set at p≤0.05.
This study used the same model and testing procedure for the two-mouse social interaction test as described in Example 1, and using a phosphate salt form of KNX100.

[2] = tested on: APP/PS1 mice; assay: Resident-Intruder (RI) test in Alzheimer's disease aggression mouse model; settings: for number (frequency) of attacks on the intruder mouse vs vehicle-treated APP/PS1 mice: KNX100 phosphate salt 2.5, 5 or 10 mg/kg freebase equivalent IP 15 min prior, risperidone 0.05 mg/kg IP 30 min prior, 5-minute session
Text: Male APP/PS1 and WT mice (˜3 months of age) were used to assess the effect of KNX100 on aggression in a mouse model of Alzheimer's Disease.
APP/PS1 are double transgenic mice expressing a chimeric mouse/human amyloid precursor protein (APP) and presenilin (PS1).
Male C57BL/6J mice were purchased from Jackson Laboratory at 7-8 weeks of age and were used as the intruders in this study. The APP/PS1 mice and wild-type control mice were single-housed and C57BL/6J mice were group-housed (4 per cage) in a light-controlled environment (12/12 light/dark cycle) with access to food and water ad libitum. Tests were performed during the animal's light cycle.
The test compound, KNX100 was provided in its phosphate salt form. Doses of 2.5, 5, and 10 mg/kg freebase equivalent were dissolved in saline and injected IP, at a dose volume of 10 ml/kg, 15 minutes prior to the test.
Briefly, all mice were acclimated to red-light conditions for 60 minutes prior to testing. During the RI test, an unfamiliar intruder C57BL/6J mouse was placed directly into the home cage of the APP/PS1 resident mouse for 300 seconds. During the 5-minute session, the latency time to attack (attack was defined at a bite), and the total number (frequency) of attacks, were recorded manually by an experimenter blinded to the treatment groups. Immediately after testing, mice were separated, and the intruder mouse was placed back into his home cage. All mice that were wounded were treated according to IACUC guidelines.
One week after the pre-screen RI session, AD resident mice were administered vehicle, test compound, or risperidone. The RI test session was performed as described above following the appropriate pretreatment time.
Body weights were recorded at each time point as specified above. For aggression, the latency to attack and the total number of attacks were recorded.
Data were analyzed by analysis of variance (ANOVA) followed by post-hoc comparisons when appropriate. An effect was considered significant if p<0.05. Data are presented as the mean±standard error of the mean (SEM).

[3] = tested on: 6-OHDA lesion mice; assay: Social interaction test in neonatal 6-OHDA lesion mouse model of ADHD; settings: KNX100 phosphate 1.845-7.38 mg/kg freebase equivalent i.p. or 3.75-15 mg/kg p.o.
Text: Increased aggression is commonly observed in patients with ADHD. This increased aggression is also observed in several animal models of ADHD. One such model is the neonatal 6-hydroxydopamine (6-OHDA) lesion mouse model.
Briefly, intracerebroventricular infusion of 6-OHDA into brains of mice around postnatal day 5 results in a biological ADHD phenotype (e.g. dopamine depletion) and a behavioural phenotype (e.g. hyperactivity, impaired attention, impulsivity, aggression, and learning and memory deficits) in the majority of mice from postweaning onwards.
Five primary experimental conditions of interest are investigated: • Sham lesion mice treated with vehicle • 6-OHDA lesion mice treated with vehicle • 6-OHDA lesion mice treated with 1.845 mg/kg freebase equivalent KNX100 phosphate i.p. or 3.75 mg/kg p.o. • 6-OHDA lesion mice treated with 3.69 mg/kg freebase equivalent KNX100 phosphate i.p. or 7.5 mg/kg p.o. • 6-OHDA lesion mice treated with 7.38 mg/kg freebase equivalent KNX100 phosphate i.p. or 15 mg/kg p.o.
During adolescence, mice undergo a social interaction test to test the effects of KNX100 on increased aggression the ADHD model mice (6-OHDA lesion mice) compared to the control mice (sham lesion mice). […] The behaviours of the control or ADHD model mouse are assessed and include the total time spent fighting, the total number of fights, and the latency to the first fight.

[4] = Example 4: 0.1 mg/kg risperidone (30 min prior) or 10 mg/kg KNX100 dihydrochloride salt (15 min prior), 10 min test
[5] = Example 4: 0.1 mg/kg risperidone or 10 mg/kg KNX100 dihydrochloride salt
[6] = Example 4: 10 mg/kg KNX100 vs 0.1 mg/kg risperidone
[7] = KNX100 dihydrochloride salt 20 mg/kg p.o. 30 min prior, 5 min test
[8] = KNX100 dihydrochloride salt 2.5, 5 or 10 mg/kg i.p., single housed mice, linear trend for dose
[9] = acute KNX100 phosphate salt 15 mg/kg freebase equivalent p.o.
[10] = subchronic KNX100 phosphate salt 15 mg/kg freebase equivalent p.o. once daily 7 days

Cn1ncc2c1Nc1ccccc1NC2 [KNX100]
time spent fighting vs vehicle treated single housed mice [1, 4]: spent less time fighting; also recorded: significantly inhibited fighting
distance travelled vs vehicle treated single housed mice [1, 5]: travelled significantly less distance; also recorded: significantly reduced distance travelled
time spent fighting vs vehicle treated group housed mice [1, 5]: spent less time fighting
time spent huddling vs vehicle treated single housed mice [1, 5]: spent significantly more time huddling; also recorded: increased huddling
distance travelled / locomotor activity, risperidone compared with KNX100 ([1]; Example 4: 0.1 mg/kg risperidone vs 10 mg/kg KNX100): significantly less suppression of locomotor activity
time spent grooming vs vehicle treated group housed mice ([1]; Example 4: 10 mg/kg KNX100 dihydrochloride salt): did not differ significantly from vehicle treated group housed mice in time spent grooming
time spent fighting / inhibition of aggression, KNX100 compared with risperidone [1, 6]: no significant difference in time spent fighting; also recorded: at least equivalent inhibition of aggression to risperidone
time spent grooming, KNX100 compared with risperidone [1, 6]: no significant different in time spent grooming
time spent huddling, KNX100 compared with risperidone [1, 6]: no significant difference in time spent huddling
time spent fighting vs vehicle treated group housed mice [1, 7]: did not differ significantly in time spent fighting compared to vehicle treated group housed mice; also recorded: did not differ significantly in time spent fighting relative to the group housed mice
time spent fighting vs vehicle treated single housed mice [1, 7]: spent significantly less time fighting than the single housed vehicle treated mice
distance travelled relative to the group housed mice ([1]; KNX100 dihydrochloride salt 2.5, 5, 10 mg/kg i.p., vs vehicle treated group housed mice): none of the doses of KNX100 resulted in a significant difference in distance travelled
time spent fighting ([1]; KNX100 dihydrochloride salt 2.5, 5 or 10 mg/kg i.p. 15 min prior, single housed mice, linear trend for dose, 10 min test): dose dependently inhibited induced aggression; also recorded: dose dependently inhibited fighting
distance travelled [1, 8]: dose dependently decreased distance travelled; also recorded: dose dependently inhibited
time spent huddling [1, 8]: dose dependently increased time spent in this form of close physical contact; also recorded: dose dependently increased huddling
time spent self-grooming [1, 8]: dose dependently increased time spent self-grooming
efficacy of subchronic compared with acute KNX100 (duration spent fighting, number of fights, latency to first fight) ([1]; KNX100 phosphate salt 15 mg/kg freebase equivalent p.o.): no significant difference in efficacy; also recorded: maintains full efficacy at reducing aggressive behaviour after repeated dosing; also recorded: equally efficacious
greater number of fights in single housed mice [1, 9]: prevented
reduced latency to first fight in single housed mice [1, 9]: prevented
increased time spent fighting in single housed mice ([1]; acute KNX100 phosphate salt 15 mg/kg freebase equivalent p.o. on day 7, 30 min prior): prevented the increased time spent fighting
greater number of fights in single housed mice [1, 10]: prevented
reduced latency to first fight in single housed mice [1, 10]: prevented
increased time spent fighting in single housed mice [1, 10]: prevented the increased time spent fighting
latency to attack the intruder mouse vs vehicle-treated APP/PS1 mice ([2]; KNX100 phosphate salt 10 mg/kg freebase equivalent IP): showed a trend to increasing the latency to attack; also recorded: tended to increase the latency to attack intruders
number (frequency) of attacks on the intruder mouse vs vehicle-treated APP/PS1 mice [2]: decreased the number of attacks; also recorded: robustly reduced the number of aggressive attacks
total time spent fighting, total number of fights, latency to the first fight [3]: is shown to inhibit fighting incidents, duration of fighting, and latency to first attack

Cc1nc2n(c(=O)c1CCN1CCC(c3noc4cc(F)ccc34)CC1)CCCC2 [risperidone, reference compound]
time spent fighting vs vehicle treated single housed mice [1, 4]: spent less time fighting; also recorded: significantly inhibited fighting
time spent fighting vs vehicle treated group housed mice [1, 5]: spent less time fighting
time spent huddling vs vehicle treated single housed mice [1, 5]: spent significantly more time huddling; also recorded: increased huddling
time spent grooming vs vehicle treated single housed mice ([1]; Example 4: 0.1 mg/kg risperidone, 0.1 mg/kg): spent significantly more time grooming; also recorded: significantly increased time spent grooming
number (frequency) of attacks on the intruder mouse vs vehicle-treated APP/PS1 mice [2]: decreased the number of attacks
